Our source for the IC50 values is the Kinase Knowledgebase extract (Sharma et al. 2016).

A word on the IC50: it is the point on the concentration scale where inhibition reaches its midpoint. A lower IC50 goes with greater potency.

Sequence of PIK3CD (Human) (O00329 whole entry, looked up): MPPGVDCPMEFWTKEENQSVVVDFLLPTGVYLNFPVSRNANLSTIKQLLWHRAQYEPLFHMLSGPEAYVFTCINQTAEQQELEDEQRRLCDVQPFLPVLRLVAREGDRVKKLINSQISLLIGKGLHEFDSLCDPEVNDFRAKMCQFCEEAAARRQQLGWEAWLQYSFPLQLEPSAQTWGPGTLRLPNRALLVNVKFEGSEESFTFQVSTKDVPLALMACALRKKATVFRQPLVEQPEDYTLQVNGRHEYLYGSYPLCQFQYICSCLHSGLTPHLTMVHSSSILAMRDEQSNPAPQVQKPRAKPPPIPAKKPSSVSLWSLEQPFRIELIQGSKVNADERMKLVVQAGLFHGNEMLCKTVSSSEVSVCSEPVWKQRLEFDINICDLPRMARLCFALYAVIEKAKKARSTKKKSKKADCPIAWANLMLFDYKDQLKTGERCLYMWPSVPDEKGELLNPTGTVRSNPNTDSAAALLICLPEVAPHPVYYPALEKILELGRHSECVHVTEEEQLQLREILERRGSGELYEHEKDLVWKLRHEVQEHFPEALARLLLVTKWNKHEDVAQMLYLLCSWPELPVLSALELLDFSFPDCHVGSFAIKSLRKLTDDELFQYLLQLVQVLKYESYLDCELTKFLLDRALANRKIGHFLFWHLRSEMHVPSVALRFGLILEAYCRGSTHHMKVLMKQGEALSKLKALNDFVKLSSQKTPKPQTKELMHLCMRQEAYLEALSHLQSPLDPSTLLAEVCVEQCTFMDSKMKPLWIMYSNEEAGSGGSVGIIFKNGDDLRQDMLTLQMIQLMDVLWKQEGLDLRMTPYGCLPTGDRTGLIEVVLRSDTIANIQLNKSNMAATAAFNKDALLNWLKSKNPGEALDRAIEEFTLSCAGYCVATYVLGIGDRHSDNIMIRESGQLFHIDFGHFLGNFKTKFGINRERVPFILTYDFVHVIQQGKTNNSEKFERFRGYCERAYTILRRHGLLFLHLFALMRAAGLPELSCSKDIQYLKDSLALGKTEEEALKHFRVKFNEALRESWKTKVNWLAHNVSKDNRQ

For the first assay, the target named is PIK3CB (Human) (UniProt P42338). Briefly: Assessment of PIK3CB Kinase Activity.
Sequence of PIK3CB (Human) (P42338 whole entry, looked up): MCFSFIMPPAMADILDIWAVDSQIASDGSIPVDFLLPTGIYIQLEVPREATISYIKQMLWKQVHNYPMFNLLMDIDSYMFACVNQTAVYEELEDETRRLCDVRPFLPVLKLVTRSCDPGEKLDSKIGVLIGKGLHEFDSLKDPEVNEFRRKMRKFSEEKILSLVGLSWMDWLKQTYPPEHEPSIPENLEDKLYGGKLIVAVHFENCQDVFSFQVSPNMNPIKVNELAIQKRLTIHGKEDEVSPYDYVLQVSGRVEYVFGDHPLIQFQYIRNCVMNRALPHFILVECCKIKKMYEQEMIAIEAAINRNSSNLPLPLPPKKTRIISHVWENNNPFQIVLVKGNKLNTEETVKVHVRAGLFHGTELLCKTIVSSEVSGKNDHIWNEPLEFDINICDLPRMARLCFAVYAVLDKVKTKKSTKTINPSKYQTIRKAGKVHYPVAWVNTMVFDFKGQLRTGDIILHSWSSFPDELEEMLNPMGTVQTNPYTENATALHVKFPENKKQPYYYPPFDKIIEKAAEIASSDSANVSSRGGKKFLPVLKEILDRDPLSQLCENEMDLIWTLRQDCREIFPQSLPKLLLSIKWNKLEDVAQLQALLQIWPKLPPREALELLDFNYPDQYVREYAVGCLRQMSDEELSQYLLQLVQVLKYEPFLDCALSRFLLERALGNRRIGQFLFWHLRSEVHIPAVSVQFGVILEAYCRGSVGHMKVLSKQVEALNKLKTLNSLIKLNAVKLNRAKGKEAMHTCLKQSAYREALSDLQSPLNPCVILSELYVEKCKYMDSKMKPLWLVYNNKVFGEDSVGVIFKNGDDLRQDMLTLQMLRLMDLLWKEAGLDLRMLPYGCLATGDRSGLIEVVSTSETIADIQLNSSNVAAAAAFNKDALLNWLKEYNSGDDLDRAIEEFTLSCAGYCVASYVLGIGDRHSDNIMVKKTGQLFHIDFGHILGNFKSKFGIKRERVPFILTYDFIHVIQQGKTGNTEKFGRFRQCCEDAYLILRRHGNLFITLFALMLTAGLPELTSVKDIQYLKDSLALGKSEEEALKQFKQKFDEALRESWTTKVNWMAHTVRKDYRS
In turn, `CNc1ccc(-c2nc(N3CCOCC3)c3sc(CN(C)c4ncc(C(=O)NO)cn4)cc3n2)cn1` yielded a half-inhibitory concentration (IC50) of 100 to 1000 nM.

The next assay deals with PIK3CG (human) (UniProt P48736). Briefly: Assessment of PIK3CG Kinase Activity.
Sequence of PIK3CG (human) (P48736 whole entry, looked up): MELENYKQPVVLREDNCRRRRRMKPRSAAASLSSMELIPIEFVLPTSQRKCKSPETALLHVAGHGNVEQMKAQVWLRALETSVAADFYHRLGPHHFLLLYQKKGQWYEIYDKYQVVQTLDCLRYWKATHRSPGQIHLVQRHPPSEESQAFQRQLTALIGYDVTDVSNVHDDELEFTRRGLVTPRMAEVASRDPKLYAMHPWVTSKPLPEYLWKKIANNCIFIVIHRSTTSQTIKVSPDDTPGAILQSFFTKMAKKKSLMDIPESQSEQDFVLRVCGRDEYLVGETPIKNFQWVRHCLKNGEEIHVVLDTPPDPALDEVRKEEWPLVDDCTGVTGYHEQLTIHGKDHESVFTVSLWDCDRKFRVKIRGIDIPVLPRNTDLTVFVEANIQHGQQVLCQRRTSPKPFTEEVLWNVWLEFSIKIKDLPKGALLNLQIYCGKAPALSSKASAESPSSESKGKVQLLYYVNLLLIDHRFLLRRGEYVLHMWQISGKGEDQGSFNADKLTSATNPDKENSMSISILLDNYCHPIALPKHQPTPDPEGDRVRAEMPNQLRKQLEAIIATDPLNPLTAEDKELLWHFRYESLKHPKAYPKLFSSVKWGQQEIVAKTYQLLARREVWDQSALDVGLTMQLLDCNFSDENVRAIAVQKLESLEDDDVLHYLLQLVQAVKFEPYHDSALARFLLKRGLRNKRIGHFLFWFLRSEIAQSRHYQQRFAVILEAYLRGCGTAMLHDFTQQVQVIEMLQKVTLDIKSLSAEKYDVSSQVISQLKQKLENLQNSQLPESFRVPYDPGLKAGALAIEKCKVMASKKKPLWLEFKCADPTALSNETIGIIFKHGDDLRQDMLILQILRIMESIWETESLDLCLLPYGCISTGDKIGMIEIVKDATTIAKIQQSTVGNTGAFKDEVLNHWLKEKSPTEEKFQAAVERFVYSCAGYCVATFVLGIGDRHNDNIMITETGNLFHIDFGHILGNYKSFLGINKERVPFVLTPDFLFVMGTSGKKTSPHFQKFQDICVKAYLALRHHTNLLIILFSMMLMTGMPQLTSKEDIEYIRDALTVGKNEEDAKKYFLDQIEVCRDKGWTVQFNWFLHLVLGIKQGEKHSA
`CNc1ccc(-c2nc(N3CCOCC3)c3sc(CN(C)c4ncc(C(=O)NO)cn4)cc3n2)cn1` returned an IC50 of 100 to 1000 nM.

The next assay concerns the target PIK3CD (Human) (UniProt O00329). Briefly: Assessment of PIK3CD Kinase Activity.
Molecule `CNc1ccc(-c2nc(N3CCOCC3)c3sc(CN(C)c4ncc(C(=O)NO)cn4)cc3n2)cn1` gave an IC50 of less than 100 nM.

The target in the next assay is PIK3CA (human) (UniProt P42336). Briefly: Assessment of PIK3CA Kinase Activity.
Sequence of PIK3CA (human) (P42336 whole entry, looked up): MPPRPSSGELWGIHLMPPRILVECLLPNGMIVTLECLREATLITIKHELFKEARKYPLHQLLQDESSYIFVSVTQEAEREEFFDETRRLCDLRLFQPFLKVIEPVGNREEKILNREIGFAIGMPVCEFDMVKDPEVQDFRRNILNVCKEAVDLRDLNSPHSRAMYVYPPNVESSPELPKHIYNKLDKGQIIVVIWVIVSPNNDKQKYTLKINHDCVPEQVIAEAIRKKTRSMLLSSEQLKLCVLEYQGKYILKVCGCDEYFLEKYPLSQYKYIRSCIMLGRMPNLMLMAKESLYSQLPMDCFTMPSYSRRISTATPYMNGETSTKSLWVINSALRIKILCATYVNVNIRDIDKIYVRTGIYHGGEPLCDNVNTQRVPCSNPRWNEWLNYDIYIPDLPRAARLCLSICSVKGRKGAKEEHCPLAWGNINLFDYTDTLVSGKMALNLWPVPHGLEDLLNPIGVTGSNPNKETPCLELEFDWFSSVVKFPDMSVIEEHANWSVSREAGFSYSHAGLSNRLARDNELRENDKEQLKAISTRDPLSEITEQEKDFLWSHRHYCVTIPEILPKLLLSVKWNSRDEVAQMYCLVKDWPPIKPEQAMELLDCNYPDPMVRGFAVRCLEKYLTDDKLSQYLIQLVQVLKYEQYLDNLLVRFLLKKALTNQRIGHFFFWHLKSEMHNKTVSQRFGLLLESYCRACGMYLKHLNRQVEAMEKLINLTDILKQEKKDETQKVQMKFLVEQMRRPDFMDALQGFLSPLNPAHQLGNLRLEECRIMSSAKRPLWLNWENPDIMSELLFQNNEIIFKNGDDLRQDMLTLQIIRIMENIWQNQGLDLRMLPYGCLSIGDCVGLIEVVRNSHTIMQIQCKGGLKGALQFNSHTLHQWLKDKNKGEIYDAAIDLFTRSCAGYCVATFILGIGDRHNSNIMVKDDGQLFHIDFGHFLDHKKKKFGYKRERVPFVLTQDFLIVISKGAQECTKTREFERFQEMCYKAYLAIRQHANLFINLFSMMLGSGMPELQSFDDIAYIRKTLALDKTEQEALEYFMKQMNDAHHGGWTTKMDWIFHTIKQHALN
For the molecule `CNc1ccc(-c2nc(N3CCOCC3)c3sc(CN(C)c4ncc(C(=O)NO)cn4)cc3n2)cn1`, the IC50 was less than 100 nM. For the molecule `C[C@H](O)c1cccc(-c2nc(N3CCOCC3)c3sc(CN(C)c4ncc(C(=O)NO)cn4)cc3n2)c1`, the IC50 lay within 100 to 1000 nM. With `CN(Cc1cc2nc(-c3ccc(OCc4ccccc4)nc3)nc(N3CCOCC3)c2s1)c1ncc(C(=O)NO)cn1`, the IC50 is greater than 10000 nM. Consider `CN(Cc1cc2nc(-c3ccc(N)c(C#N)c3)nc(N3CCOCC3)c2s1)c1ncc(C(=O)NO)cn1`, for which the IC50 lay within 100 to 1000 nM. `COc1ccc(-c2nc(N3CCOCC3)c3sc(NS(=O)(=O)c4cccc(/C=C/C(=O)NO)c4)cc3n2)cn1` displayed an IC50 of less than 100 nM. As for `CN(Cc1cc2nc(-c3cccc(S(N)(=O)=O)c3)nc(N3CCOCC3)c2s1)c1ncc(C(=O)NO)cn1`, the IC50 is 100 to 1000 nM. In the case of `CCCc1nc2cc(C=CC(=O)NO)ccc2n1CCNCc1cc2nc(-c3ccc(NC)nc3)nc(N3CCOCC3)c2s1`, the IC50 was less than 100 nM. Turning to `COc1ncc(-c2nc(N3CCOCC3)c3sc(C(C)N(C)c4ncc(C(=O)NO)cn4)cc3n2)cn1` (stereo not given), the IC50 is less than 100 nM.

Consider `COc1ccc(-c2nc(N3CCOCC3)c3sc(NCCCCC(=O)NO)cc3n2)cn1`, for which the IC50 was less than 100 nM. In the case of `CN(Cc1cc2nc(-c3ccc(N)c(Cl)c3)nc(N3CCOCC3)c2s1)c1ncc(C(=O)NO)cn1`, the IC50 lay in the range of 100 to 1000 nM. `Nc1ccc(-c2nc(N3CCOCC3)c3sc(CN(CCO)c4ncc(C(=O)NO)cn4)cc3n2)cc1F` registered an IC50 of less than 100 nM. The same measure, in the same setting: then `COc1ccc(-c2nc(N3CCOCC3)c3sc(NCCCCCC(=O)NO)cc3n2)cn1`, with less than 100 nM; and `Nc1ncc(-c2nc(N3CCOCC3)c3sc(NCCCC(=O)NO)cc3n2)cn1`, with less than 100 nM. On the same count and under the same terms, next, `CN(Cc1cc2nc(-c3ccc(N)c([N+](=O)[O-])c3)nc(N3CCOCC3)c2s1)c1ncc(C(=O)NO)cn1`: less than 100 nM; `CN(Cc1cc2nc(-c3cccc4[nH]c(=S)[nH]c34)nc(N3CCOCC3)c2s1)c1ncc(C(=O)NO)cn1`: less than 100 nM; `Nc1ncc(-c2nc(N3CCOCC3)c3sc(NCCCCCC(=O)NO)cc3n2)cn1`: less than 100 nM. For `CN(Cc1cc2nc(-c3cccc(SCCO)c3)nc(N3CCOCC3)c2s1)c1ncc(C(=O)NO)cn1`, the IC50 lay within 100 to 1000 nM. On to `COc1ncc(-c2nc(N3CCOCC3)c3sc(C(C)(C)Nc4ncc(C(=O)NO)cn4)cc3n2)cn1`, for which the IC50 is less than 100 nM.

As to `CS(=O)(=O)N1CCN(Cc2cc3nc(-c4cccc5[nH]ncc45)nc(N4CCN(CCCCC(=O)NO)CC4)c3s2)CC1`, the IC50 was greater than 10000 nM.

`CC(=O)N1CCN(c2nc(-c3cccc4[nH]ncc34)nc3cc(CN(C)c4ncc(C(=O)NO)cn4)sc23)CC1` came in with a 50% inhibitory concentration (IC50) greater than 10000 nM. The same measure, in the same setting: next, `CN(C)CCOc1ccc(-c2nc(N3CCOCC3)c3sc(CN(C)c4ncc(C(=O)NO)cn4)cc3n2)cn1`: greater than 10000 nM; `COc1ccc(-c2nc(N3CCOCC3)c3sc(C(C)N(C)c4ncc(C(=O)NO)cn4)cc3n2)cn1` (stereo not given): less than 100 nM; `Nc1ncc(-c2nc(N3CCOCC3)c3sc(NS(=O)(=O)c4ccc(/C=C/C(=O)NO)cc4)cc3n2)cn1`: less than 100 nM.

`CN(Cc1cc2nc(-c3cccc4c3CC(=O)N4)nc(N3CCOCC3)c2s1)c1ncc(C(=O)NO)cn1` displayed an IC50 greater than 10000 nM. Consider `CS(=O)(=O)N1CCN(Cc2cc3nc(-c4cccc5c4cnn5CCCCCC(=O)NO)nc(N4CCOCC4)c3s2)CC1`, for which the half-maximal inhibitory concentration (IC50) is greater than 10000 nM. As to `CN(Cc1cc2nc(-c3ccc(F)cc3)nc(N3CCOCC3)c2s1)c1ncc(C(=O)NO)cn1`, the concentration for half-maximal inhibition (IC50) is greater than 10000 nM. The molecule `CN(Cc1cc2nc(-c3cccc(NS(C)(=O)=O)c3)nc(N3CCOCC3)c2s1)c1ncc(C(=O)NO)cn1` had an IC50 greater than 10000 nM. With `CS(=O)(=O)N1CCN(Cc2cc3nc(-c4ccc(OCCCCC(=O)NO)cc4)nc(N4CCOCC4)c3s2)CC1`, the IC50 fell in the range of 100 to 1000 nM.

Turning to `COc1ccc(-c2nc(N3CCOCC3)c3sc(C(C)(C)Nc4ncc(C(=O)NO)cn4)cc3n2)cn1`, the IC50 is less than 100 nM.

Consider `CN(Cc1cc2nc(-c3ccc(Cl)cc3)nc(N3CCOCC3)c2s1)c1ncc(C(=O)NO)cn1`, for which the IC50 was greater than 10000 nM. In turn, `CC(C)C(=O)Nc1ccc(-c2nc(N3CCOCC3)c3sc(CN(C)c4ncc(C(=O)NO)cn4)cc3n2)cc1` registered a 50% inhibitory concentration (IC50) of 100 to 1000 nM. Same read-out and setting: then `CS(=O)(=O)N1CCN(Cc2cc3nc(-c4cccc5[nH]ncc45)nc(NCCCCC(=O)NO)c3s2)CC1`, with greater than 10000 nM; and `CN(Cc1cc2nc(-c3ccc(N)cc3F)nc(N3CCOCC3)c2s1)c1ncc(C(=O)NO)cn1`, with 100 to 1000 nM; and `CCCc1nc2cc(C=CC(=O)NO)ccc2n1CCN(C)Cc1cc2nc(-c3ccc(NC)nc3)nc(N3CCOCC3)c2s1`, with 100 to 1000 nM. For `COc1ccc(-c2nc(N3CCOCC3)c3sc(Nc4ncc(C(=O)NO)cn4)cc3n2)cn1`, the IC50 was less than 100 nM. `CN(Cc1cc2nc(-c3ccc(OCCN)nc3)nc(N3CCOCC3)c2s1)c1ncc(C(=O)NO)cn1` registered a concentration for half-maximal inhibition (IC50) greater than 10000 nM. Regarding `Nc1ncc(-c2nc(N3CCOCC3)c3sc(NCCCCCCC(=O)NO)cc3n2)cn1`, the IC50 was less than 100 nM. Regarding `CNc1ccc(-c2nc(N3CCOCC3)c3sc(C(C)(C)N(C)c4ncc(C(=O)NO)cn4)cc3n2)cn1`, the IC50 lay in the range of 100 to 1000 nM. As to `CC(=NO)c1cccc(-c2nc(N3CCOCC3)c3sc(CN(C)c4ncc(C(=O)NO)cn4)cc3n2)c1`, the half-maximal inhibitory concentration (IC50) is 100 to 1000 nM. Molecule `COc1ccc(-c2nc(N3CCOCC3)c3sc(S(=O)(=O)Nc4ncc(C(=O)NO)cn4)cc3n2)cn1` showed an IC50 of less than 100 nM. Molecule `COc1ccc(-c2nc(N3CCOCC3)c3sc(CN(C)c4ncc(C(=O)NO)cn4)cc3n2)cc1` registered an IC50 greater than 10000 nM. `CNc1ccc(-c2nc(N3CCOCC3)c3sc(NS(=O)(=O)c4ccc(C=CC(=O)NO)cc4)cc3n2)cn1`: the half-maximal inhibitory concentration (IC50) was less than 100 nM.

Consider `CN(Cc1cc2nc(-c3ccc(N4CCCC4)cc3)nc(N3CCOCC3)c2s1)c1ncc(C(=O)NO)cn1`, for which the IC50 is greater than 10000 nM. Same read-out and setting: then `CNc1ccc(-c2nc(N3CCOCC3)c3sc(N(C)c4ncc(C(=O)NO)cn4)cc3n2)cn1`, with less than 100 nM; and `CC(C)c1ccc(-c2nc(N3CCOCC3)c3sc(CN(C)c4ncc(C(=O)NO)cn4)cc3n2)cc1`, with greater than 10000 nM; and `CCN(CC)c1ccc(-c2nc(N3CCOCC3)c3sc(CN(C)c4ncc(C(=O)NO)cn4)cc3n2)cc1`, with greater than 10000 nM. `CN(Cc1cc2nc(-c3cccc(CCO)c3)nc(N3CCOCC3)c2s1)c1ncc(C(=O)NO)cn1` came in with an IC50 of 100 to 1000 nM. Same read-out and setting: next, `CN(Cc1cc2nc(-c3cccc4[nH]ncc34)nc(N3CCNCC3)c2s1)c1ncc(C(=O)NO)cn1`: greater than 10000 nM; `O=C(NO)c1ccc2c(ccn2Cc2cc3nc(-c4cccc5[nH]ncc45)nc(N4CCOCC4)c3s2)c1`: greater than 10000 nM. The same measure, in the same setting: then `Cc1ncc(-c2nc(N3CCOCC3)c3sc(NCCCCC(=O)NO)cc3n2)cn1`, with less than 100 nM; and `CN(Cc1cc2nc(-c3ccc(OCCO)nc3)nc(N3CCOCC3)c2s1)c1ncc(C(=O)NO)cn1`, with less than 100 nM; and `COc1ccc(-c2nc(N3CCOCC3)c3sc(NS(=O)(=O)c4ccc(C=CC(=O)NO)cc4)cc3n2)cn1`, with 100 to 1000 nM. Still for that read-out and setting: next, `COc1ncc(-c2nc(N3CCOCC3)c3sc(CN(C)c4ncc(C(=O)NO)cn4)cc3n2)cn1`: less than 100 nM; `CN(Cc1cc2nc(-c3ccc4[nH]c(C(F)(F)F)nc4c3)nc(N3CCOCC3)c2s1)c1ncc(C(=O)NO)cn1`: less than 100 nM. Regarding `CN(Cc1cc2nc(-c3ccc4c(c3)CCN4)nc(N3CCOCC3)c2s1)c1ncc(C(=O)NO)cn1`, the IC50 was greater than 10000 nM. The molecule `CNc1ccc(-c2nc(N3CCOCC3)c3sc(NCCCCC(=O)NO)cc3n2)cn1` came in with an IC50 of less than 100 nM. `Cn1cc(-c2nc(N3CCOCC3)c3sc(CN(CCO)c4ncc(C(=O)NO)cn4)cc3n2)cn1` returned an IC50 of 100 to 1000 nM. Take `COc1cccc(Nc2nc(-c3cccc4[nH]ncc34)nc3cc(CN(C)c4ncc(C(=O)NO)cn4)sc23)c1`: the IC50 is greater than 10000 nM. The same measure, in the same setting: next, `CNc1ccc(-c2nc(N3CCOCC3)c3sc(CN(C)Cc4nc5cc(C=CC(=O)NO)ccc5n4C)cc3n2)cn1`: less than 100 nM; `CN(Cc1cc2nc(-c3cccc4[nH]c(=O)sc34)nc(N3CCOCC3)c2s1)c1ncc(C(=O)NO)cn1`: less than 100 nM. With `CS(=O)(=O)N1CCN(Cc2cc3nc(-c4cccc5[nH]ncc45)nc(N4CCN(CCCCCC(=O)NO)CC4)c3s2)CC1`, the IC50 is greater than 10000 nM. `CC(O)c1cccc(-c2nc(N3CCOCC3)c3sc(CN(C)c4ncc(C(=O)NO)cn4)cc3n2)c1` (stereo not given): the IC50 was less than 100 nM.
